pEC50: −log10 of the molar value.
Molecular target: T1, LXRβ (Homo sapiens, UniProt P55055)
T1 construct: Co-transfection expression plasmids, comprising full-length LXRα (pCMX-h LXRα[…] or LXRβ (pCMX-hLXRβ)); expressed in transfected cells; host or cells: CV-1 African Green Monkey Kidney Cells
T1 sequence (P55055 1-460): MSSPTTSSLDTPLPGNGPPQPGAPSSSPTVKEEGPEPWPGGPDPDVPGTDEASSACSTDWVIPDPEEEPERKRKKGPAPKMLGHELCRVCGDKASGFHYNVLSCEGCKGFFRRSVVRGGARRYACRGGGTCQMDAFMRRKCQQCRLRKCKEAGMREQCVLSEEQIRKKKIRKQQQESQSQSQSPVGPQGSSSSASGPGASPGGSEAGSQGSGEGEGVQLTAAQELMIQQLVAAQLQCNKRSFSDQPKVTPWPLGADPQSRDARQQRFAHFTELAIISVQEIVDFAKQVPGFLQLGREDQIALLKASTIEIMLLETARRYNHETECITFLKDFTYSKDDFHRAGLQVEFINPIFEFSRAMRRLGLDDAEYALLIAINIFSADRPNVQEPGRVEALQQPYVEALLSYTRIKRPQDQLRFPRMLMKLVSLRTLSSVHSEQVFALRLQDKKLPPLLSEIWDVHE
T1 sequence (P19793 1-462 partner): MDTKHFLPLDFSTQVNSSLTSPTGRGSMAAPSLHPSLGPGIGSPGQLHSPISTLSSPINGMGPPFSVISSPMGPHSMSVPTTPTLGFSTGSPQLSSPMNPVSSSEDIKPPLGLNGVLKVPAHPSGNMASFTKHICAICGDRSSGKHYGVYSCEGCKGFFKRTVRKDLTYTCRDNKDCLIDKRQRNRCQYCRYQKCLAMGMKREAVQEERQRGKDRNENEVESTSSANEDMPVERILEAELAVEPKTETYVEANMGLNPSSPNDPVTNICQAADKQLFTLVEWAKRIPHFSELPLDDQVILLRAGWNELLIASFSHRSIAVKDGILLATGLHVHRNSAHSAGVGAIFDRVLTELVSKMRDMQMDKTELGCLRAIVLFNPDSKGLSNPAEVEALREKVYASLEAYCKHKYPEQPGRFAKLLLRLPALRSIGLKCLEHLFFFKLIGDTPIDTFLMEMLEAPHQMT
Assay: Co-transfection assay (LXRE luciferase reporter), LXRβ
Type: cell-based
Settings: for pEC50: CV-1 cells transfected with pCMX-hLXRβ and LXREx1-Tk-Luciferase, 20 hours incubation; for Emax: LXRβ co-transfection, relative to high control 1-(2,4-difluorobenzyl)-2-oxo-6-(4-phenoxyphenyl)-4-(trifluoromethyl)-1,2-dihydropyridine-3-carbonitrile, read-out: % Efficacy
How it was run: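 CV-1 cells transiently co-transfected with full-length human LXRβ expression plasmid, LXREx1-Tk-luciferase reporter and β-galactosidase control, then exposed to compound for 20 h at 37 °C. Luciferase luminescence read; EC50 from 11-point, ½-log dose–response fit, efficacy relative to high-control agonist maximum.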

pEC50 | Emax [%] | SMILES
7.55 | 100 | Cc1cc(-c2cc(-c3cccc(S(C)(=O)=O)c3)ccc2-n2cc(C(F)(F)F)nc2C)n(-c2ccc3c(c2)OC(F)(F)O3)n1 [Example 304, 1-(2,2-difluorobenzo[d][1,3]dioxol-5-yl)-3-methyl-5-(4-(2-methyl-4-(trifluoromethyl)-1H-imidazol-1-yl)-3′-(methylsulfonyl)-[1,1′-biphenyl]-3-yl)-1H-pyrazole]
6.37 | 77 | Cc1nc(C(F)(F)F)cn1-c1ccc(-c2cccc(S(C)(=O)=O)c2)cc1-c1ncoc1-c1ccc(Cl)cc1 [Example 354, 5-(4-chlorophenyl)-4-{3′-(methylsulfonyl)-4-[2-methyl-4-(trifluoromethyl)-1H-imidazol-1-yl]biphenyl-3-yl}-1,3-oxazole]
6.98 | 98 | Cc1nc(C(F)(F)F)cn1-c1ccc(-c2cc(F)c(CO)c(S(C)(=O)=O)c2)cc1-c1ocnc1-c1ccc(Cl)cc1 [Example 355, {3′-[4-(4-chlorophenyl)-1,3-oxazol-5-yl]-3-fluoro-5-(methylsulfonyl)-4′-[2-methyl-4-(trifluoromethyl)-1H-imidazol-1-yl]biphenyl-4-yl}methanol]
6.22 | 79 | Cc1nc(C(C)(F)F)cn1-c1ccc(-c2cc(F)c(CO)c(S(C)(=O)=O)c2)cc1-c1ocnc1-c1ccc(OC(F)(F)F)cc1 [Example 356, (4′-(4-(1,1-difluoroethyl)-2-methyl-1H-imidazol-1-yl)-3-fluoro-5-(methylsulfonyl)-3′-(4-(4-(trifluoromethoxy)phenyl)oxazol-5-yl)biphenyl-4-yl)methanol]
6.97 | 98 | CNS(=O)(=O)c1cccc(-c2ccc(-n3cc(C(F)(F)F)nc3C)c(-c3ocnc3-c3ccc(OC(F)(F)F)cc3)c2)c1 [Example 357, N-methyl-4′-[2-methyl-4-(trifluoromethyl)-1H-imidazol-1-yl]-3′-(4-{4-[(trifluoromethyl)oxy]phenyl}-1,3-oxazol-5-yl)biphenyl-3-sulfonamide]
6.94 | 87 | Cc1nc(C(F)(F)F)cn1-c1ccc(-c2cccc(S(=O)(=O)N(C)C)c2)cc1-c1ocnc1-c1ccc(OC(F)(F)F)cc1 [Example 358, N,N-dimethyl-4′-[2-methyl-4-(trifluoromethyl)-1H-imidazol-1-yl]-3′-(4-{4-[(trifluoromethyl)oxy]phenyl}-1,3-oxazol-5-yl)biphenyl-3-sulfonamide]
6.86 | 91 | Cc1nc(C(F)(F)F)cn1-c1ccc(-c2cc(F)c(CO)c(S(C)(=O)=O)c2)cc1-c1ocnc1-c1ccc(OC(F)(F)F)cc1 [Example 359, [3-fluoro-5-(methylsulfonyl)-4′-[2-methyl-4-(trifluoromethyl)-1H-imidazol-1-yl]-3′-(4-{4-[(trifluoromethyl)oxy]phenyl}-1,3-oxazol-5-yl)biphenyl-4-yl]methanol]
6.77 | 93 | Cc1nc(C(F)(F)F)cn1-c1ccc(-c2cccc(S(C)(=O)=O)c2)cc1-c1ocnc1-c1ccc(Cl)cc1 [Example 360, 4-(4-chlorophenyl)-5-{3′-(methylsulfonyl)-4-[2-methyl-4-(trifluoromethyl)-1H-imidazol-1-yl]biphenyl-3-yl}-1,3-oxazole]
6.74 | 89 | Cc1nc(C(F)(F)F)cn1-c1ccc(-c2cccc(S(C)(=O)=O)c2)cc1-c1ocnc1-c1ccc(OC(F)(F)F)cc1 [Example 361, 5-{3′-(methylsulfonyl)-4-[2-methyl-4-(trifluoromethyl)-1H-imidazol-1-yl]biphenyl-3-yl}-4-{4-[(trifluoromethyl)oxy]phenyl}-1,3-oxazole]
6.16 | 75 | Cc1nc(C(C)(F)F)cn1-c1ccc(-c2cccc(S(C)(=O)=O)c2)cc1-c1ocnc1-c1ccc(OC(F)(F)F)cc1 [Example 362, 5-{4-[4-(1,1-difluoroethyl)-2-methyl-1H-imidazol-1-yl]-3′-(methylsulfonyl)biphenyl-3-yl}-4-{4-[(trifluoromethyl)oxy]phenyl}-1,3-oxazole]
6.54 | 58 | CCC(F)(F)c1cn(-c2ccc(-c3cc(F)c(CO)c(S(C)(=O)=O)c3)cc2-c2ocnc2-c2ccc(OC(F)(F)F)cc2)c(C)n1 [Example 363, {4′-[4-(1,1-difluoropropyl)-2-methyl-1H-imidazol-1-yl]-3-fluoro-5-(methylsulfonyl)-3′-(4-{4-[(trifluoromethyl)oxy]phenyl}-1,3-oxazol-5-yl)biphenyl-4-yl}methanol]
6.39 | 55 | CCC(F)(F)c1cn(-c2ccc(-c3cccc(S(C)(=O)=O)c3)cc2-c2ocnc2-c2ccc(OC(F)(F)F)cc2)c(C)n1 [Example 364, 5-{4-[4-(1,1-difluoropropyl)-2-methyl-1H-imidazol-1-yl]-3′-(methylsulfonyl)biphenyl-3-yl}-4-{4-[(trifluoromethyl)oxy]phenyl}-1,3-oxazole]
6.51 | 81 | Cc1nc(C(F)(F)F)cn1-c1ccc(-c2cc(F)c(CO)c(S(C)(=O)=O)c2)cc1-c1ncoc1-c1ccc(Cl)cc1 [Example 365, {3′-[5-(4-chlorophenyl)-1,3-oxazol-4-yl]-3-fluoro-5-(methylsulfonyl)-4′-[2-methyl-4-(trifluoromethyl)-1H-imidazol-1-yl]biphenyl-4-yl}methanol]
7.11 | 89 | Cc1nc(-c2cc(-c3cccc(S(C)(=O)=O)c3)ccc2-n2cc(C(F)(F)F)nc2C)c(-c2ccc(OC(F)(F)F)cc2)o1 [Example 366, 2-methyl-4-{3′-(methylsulfonyl)-4-[2-methyl-4-(trifluoromethyl)-1H-imidazol-1-yl]biphenyl-3-yl}-5-{4-[(trifluoromethyl)oxy]phenyl}-1,3-oxazole]
6.76 | 78 | Cc1nc(-c2cc(-c3cccc(S(C)(=O)=O)c3)ccc2-n2cc(C(F)(F)F)nc2C)c(-c2cc(F)c(OC(F)F)c(F)c2)o1 [Example 367, (4-(difluoromethoxy)-3,5-difluorophenyl)-2-methyl-4-(4-(2-methyl-4-(trifluoromethyl)-1H-imidazol-1-yl)-3′-(methylsulfonyl)-[, 1′-biphenyl]-3-yl)oxazole]
6.33 | 77 | Cc1nc(-c2cc(-c3cccc(S(C)(=O)=O)c3)ccc2-n2cc(C(F)(F)F)nc2C)c(-c2ccc3c(c2)C(O)C(F)(F)O3)o1 (stereo not shown) [Example 368, 2,2-difluoro-5-(2-methyl-4-(4-(2-methyl-4-(trifluoromethyl)-1H-imidazol-1-yl)-3′-(methylsulfonyl)biphenyl-3-yl)oxazol-5-yl)-2,3-dihydrobenzofuran-3-ol]
5.94 | 29 | Cc1nc(-c2cc(-c3cccc(S(C)(=O)=O)c3)ccc2-n2cc(CO)nc2C)c(-c2ccc3c(c2)OC(F)(F)O3)o1 [Example 369, (1-(3-(5-(2,2-difluorobenzo[d][1,3]dioxol-5-yl)-2-methyloxazol-4-yl)-3′-(methylsulfonyl)biphenyl-4-yl)-2-methyl-1H-imidazol-4-yl)methanol]
5.98 | 26 | Cc1nc(-c2cc(-c3cc(F)c(CO)c(S(C)(=O)=O)c3)ccc2-n2cc(C(C)(C)O)nc2C)c(-c2ccc3c(c2)OC(F)(F)O3)o1 [Example 370, 2-(1-(3-(5-(2,2-difluorobenzo[d][1,3]dioxol-5-yl)-2-methyloxazol-4-yl)-3′-fluoro-4′-(hydroxymethyl)-5′-(methylsulfonyl)biphenyl-4-yl)-2-methyl-1H-imidazol-4-yl)propan-2-ol]
6.61 | 45 | Cc1nc(-c2cc(-c3cccc(S(C)(=O)=O)c3)ccc2-n2cc(C#N)nc2C)c(-c2ccc3c(c2)OC(F)(F)O3)o1 [Example 371, 1-(3-(5-(2,2-difluorobenzo[d][1,3]dioxol-5-yl)-2-methyloxazol-4-yl)-3′-(methylsulfonyl)biphenyl-4-yl)-2-methyl-1H-imidazole-4-carbonitrile]
7.40 | 97 | Cc1nc(-c2cc(-c3cc(F)c(CO)c(S(C)(=O)=O)c3)ccc2-n2cc(C(F)(F)F)nc2C)c(-c2ccc(OC(F)(F)F)cc2)o1 [Example 373, [3-fluoro-5-(methylsulfonyl)-4′-[2-methyl-4-(trifluoromethyl)-1H-imidazol-1-yl]-3′-(2-methyl-5-{4-[(trifluoromethyl)oxy]phenyl}-1,3-oxazol-4-yl)biphenyl-4-yl]methanol]

— patent US9834542B2, “LXR modulators” (BRISTOL-MYERS SQUIBB COMPANY, priority 2013, dated 2017)
